{
  "source": "patent US10532069B2",
  "about": "“Compositions and methods for treating joints” (DePuy Synthes Products, Inc., priority 2015, dated 2020)",
  "key": {"[1]": {"test_system": "Complete Freund's Adjuvant (CFA) induced joint inflammation in rat", "conditions": "CFA #1", "experimental": "Because OA is now known to have an inflammatory component, an animal model that mimics inflammatory arthritis was used to test HA/GlcN/CS formulations. Complete Freund's Adjuvant (CFA) comprises an emulsion of killed bacterial cells that is injected systemically or into the joint of a rat to induce severe inflammation. Two CFA studies were conducted, the first using a 200 uL injection of CFA to induce inflammation (CFA #1), the second using an injection volume of 100 uL (CFA #2). Test articles were prepared using the liquid/liquid formulation method described above.\nVon Frey filaments were used to assess mechano-allodynia (pain sensation from a normally non-painful stimulus) on days 6, 7, 8, 17, and 21 following CFA injection. […] This protocol was used to test the 18.0 and 1.8 mg/mL HA/GlcN/CS formulations. As with the rat MMT model, the cumulative improvements in pain relief were calculated. […] In this figure, the 1.8 mg/mL HA/GlcN/CS group and the 18 mg/mL HA/GlcN/CS group are labeled as “G/C 1.8 mg/ml” and “G/C 18 mg/ml”, respectively. The untreated group is labeled as “Untx” in this figure."}, "[2]": {"test_system": "Complete Freund's Adjuvant (CFA) induced joint inflammation in rat", "assay": "CFA model of inflammatory arthritis, study CFA #2 (100 uL CFA)", "type": "in vivo", "conditions": "daily oral, high dose 30 mg/kg, FIG. 8", "experimental": "In CFA #2 the same protocol was followed except for the lower dose of CFA which was intended to induce a less severe inflammatory reaction and subsequently milder pain. Also, daily oral ibuprofen (labeled as “IBR” in FIG. 8) was used as a positive control rather than diclofenac, at doses of 10 mg/kg and high 30 mg/kg. These doses were equivalent to human daily doses of […] and 3600 mg, respectively. Both are considered high doses of ibuprofen that are generally not recommended for long term use."}, "[3]": {"test_system": "PGPS (peptidoglycan polysaccharide) reactivation arthritis in male Lewis rats", "assay": "PGPS model of episodic inflammatory arthritis: weight bearing and gait analysis", "type": "in vivo", "conditions": "PGPS second reactivation (after repriming)", "experimental": "The PGPS model of arthritis is used to simulate episodic inflammation of the joint. PGPS (peptidoglycan polysaccharide) is a streptococcal cell wall formulation that is injected directly into the joint of the test subject, resulting in a painful inflammatory response. Unlike the continuous FCA response, the inflammatory pain from PGPS is transient, typically lasting only a few days. Following this “priming” injection to the joint, subsequent systemic injections result in inflammatory flares in the previously injected joint for a period of several days. The “reactivation” inflammatory flares can be repeated multiple times, with the inflammatory pain generally decreasing with subsequent reactivation cycles. Alternatively, the joint can be “reprimed” following the initial reactivation, resulting in a more robust inflammatory response in subsequent reactivations.\nAs with the rat MMT model, the effect of intra-articular therapies is assessed by static weight bearing measurements. […]\nIn the present experiment, two reactivation cycles were induced in male Lewis rats following the initial PGPS intra-articular injection. […] Weight bearing and gait analysis scores were recorded on days 1, 4, 7, and 14 following the reactivation injection. […] Weight bearing and gait analysis scores were recorded on days 1, 2, 3, and 4 following reactivation. […]"}},
  "data": [
    {"molecule": "O=C(O)Cc1ccccc1Nc1c(Cl)cccc1Cl", "note": "[diclofenac]", "values": [
      {"measurement": "safety (premature deaths of animals)", "setting": "[1]", "value": "several animals in the diclofenac group died prematurely"},
      {"measurement": "AUC analysis of pain relief compared to HA alone", "setting": "[1]; comparison with HA alone, FIG. 7", "value": "statistically superior to HA alone"},
      {"measurement": "AUC analysis of pain relief (Von Frey mechano-allodynia)", "setting": "[1]; single IA injection on day 5 after CFA (diclofenac daily oral), days 6, 7, 8, 17, 21, FIG. 7", "value": "significant improvement in pain relief"}
    ]},
    {"molecule": "CC(C)Cc1ccc(C(C)C(=O)O)cc1", "note": "(centres unmarked) [ibuprofen]", "values": [
      {"measurement": "pain relief as cumulative improvement in weight bearing deficiency", "setting": "[2]", "value": "significant improvement in pain relief"}
    ]},
    {"molecule": "C[C@]12C=CC(=O)C=C1CC[C@H]1[C@@H]3C[C@@H](O)[C@](O)(C(=O)CO)[C@@]3(C)C[C@H](O)[C@@]12F", "note": "[triamcinolone]", "values": [
      {"measurement": "weight bearing deficit", "setting": "[3]", "value": "significant improvement"}
    ]}
  ]
}
